Values after ≈ are worked out from the molar mass of the structure shown.
What was measured:
Escherichia coli [1] = assay: Antibacterial activity against Escherichia coli TP1 harboring pBR322 carrying TEM-10 by broth microdilution method; assay type: functional
Escherichia coli [2] = assay: Antibacterial activity against Escherichia coli TP1 harboring pBR322 carrying TEM-10 assessed as bacterial density up to 64 ug/ml after 18 hrs; assay type: functional
Escherichia coli [3] = assay: Antibacterial activity against Escherichia coli TP1 harboring pBR322 carrying TEM-12 assessed as inhibition of bacterial growth at 64 ug/ml after 18 hrs; assay type: functional; conditions: TP1, 18 h
Escherichia coli [4] = assay: Antibacterial activity against Escherichia coli TP1 harboring pBR322 carrying TEM-1 assessed as inhibition of bacterial growth at 2 ug/ml after 18 hrs; assay type: functional; conditions: TP1, 18 h
Escherichia coli [5] = assay: Antibacterial activity against Escherichia coli TP1 harboring pBR322 carrying TEM-12 by broth microdilution method; assay type: functional
Escherichia coli [6] = assay: Antibacterial activity against Escherichia coli TP1 by broth microdilution method
Escherichia coli [7] = assay: Antibacterial activity against Escherichia coli TP1 harboring pBR322 carrying TEM-10 assessed as inhibition of bacterial growth at 256 ug/ml after 18 hrs; assay type: functional; conditions: TP1, 18 h
Escherichia coli [8] = assay: Antibacterial activity against Escherichia coli TP1 harboring pBR322 carrying TEM-1 by broth microdilution method; assay type: functional
Escherichia coli [9] = assay: Antibacterial activity against Escherichia coli TP1 harboring pBR322 carrying TEM-12 assessed as inhibition of bacterial growth at 256 ug/ml after 18 hrs; assay type: functional; conditions: TP1, 18 h
Escherichia coli [10] = assay: Antibacterial activity against Escherichia coli TP1 harboring pBR322 carrying TEM-10 assessed as inhibition of bacterial growth at 4096 ug/ml after 18 hrs; assay type: functional; conditions: TP1, 18 h
Escherichia coli [11] = assay: Antibacterial activity against Escherichia coli TP1 harboring pBR322 carrying TEM-12 assessed as bacterial density at 1024 ug/ml after 18 hrs; assay type: functional
Escherichia coli [12] = assay: Antibacterial activity against Escherichia coli TP1 harboring pBR322 carrying TEM-1 assessed as bacterial density at 2048 ug/ml after 18 hrs relative to control; assay type: functional
Escherichia coli [13] = assay: Antibacterial activity against Escherichia coli TP1 harboring pBR322 carrying TEM-1 assessed as bacterial density at 1024 ug/ml after 18 hrs; assay type: functional
Escherichia coli [14] = assay: Antibacterial activity against Escherichia coli TP1 harboring pBR322 carrying TEM-12 assessed as bacterial density at 2048 ug/ml after 18 hrs relative to control; assay type: functional
Escherichia coli [15] = assay: Antibacterial activity against Escherichia coli TP1 harboring pBR322 carrying TEM-12 assessed as inhibition of bacterial growth at 4096 ug/ml after 18 hrs; assay type: functional; conditions: TP1, 18 h
Escherichia coli [16] = assay: Antibacterial activity against Escherichia coli TP1 harboring pBR322 carrying TEM-12 assessed as bacterial density at 512 ug/ml after 18 hrs; assay type: functional
Escherichia coli [17] = assay: Antibacterial activity against Escherichia coli TP1 harboring pBR322 carrying TEM-10 assessed as bacterial density at 2048 ug/ml after 18 hrs relative to control; assay type: functional
Escherichia coli [18] = assay: Antibacterial activity against Escherichia coli TP1 harboring pBR322 carrying TEM-1 assessed as inhibition of bacterial growth at 4096 ug/ml after 18 hrs; assay type: functional; conditions: TP1, 18 h
Escherichia coli [19] = assay: Antibacterial activity against Escherichia coli TP1 harboring pBR322 carrying TEM-10 assessed as bacterial density at 1024 ug/ml after 18 hrs; assay type: functional
Escherichia coli [20] = assay: Antibacterial activity against Escherichia coli TP1 harboring pBR322 carrying TEM-1 assessed as bacterial density at 512 ug/ml after 18 hrs; assay type: functional
Escherichia coli [21] = assay: Antibacterial activity against Escherichia coli TP1 harboring pBR322 carrying TEM-10 assessed as bacterial density at 512 ug/ml after 18 hrs; assay type: functional

CC(C)(O/N=C(\C(=O)N[C@@H]1C(=O)N2C(C(=O)[O-])=C(C[n+]3ccccc3)CS[C@H]12)c1csc(N)n1)C(=O)O [CEFTAZIDIME] gave an MIC (Escherichia coli [1]) of over 1020 µg/mL, an Activity (Escherichia coli [2]) of 100% and an inhibition at 64 µg/mL (Escherichia coli [3]) of 64%. The inhibition at 2 µg/mL (Escherichia coli [4]) was 99%, the MIC (Escherichia coli [5]) was 512 µg/mL (≈ 937 µM) and the MIC (Escherichia coli [6]) was 1 µg/mL (≈ 1.83 µM). For the same compound, the inhibition at 256 µg/mL (Escherichia coli [7]) was 17%, the MIC (Escherichia coli [8]) was 8 µg/mL (≈ 14.6 µM) and the inhibition at 256 µg/mL (Escherichia coli [9]) was 88%.

Compound CC1(C)S[C@@H]2[C@H](NC(=O)[C@H](N)c3ccccc3)C(=O)N2[C@H]1C(=O)O [AMPICILLIN] has an inhibition at 4096 µg/mL (Escherichia coli [10]) of 78%, an Activity (Escherichia coli [11]) of 5% and an MIC (Escherichia coli [1]) of 16400 µg/mL (≈ 46900 µM). For the same compound, the Activity (Escherichia coli [12]) was 95%, the Activity (Escherichia coli [13]) was 5% and the MIC (Escherichia coli [5]) was 16400 µg/mL (≈ 46900 µM). For the same compound, the Activity (Escherichia coli [14]) was 72%, the inhibition at 4096 µg/mL (Escherichia coli [15]) was 36% and the MIC (Escherichia coli [6]) was 32 µg/mL (≈ 91.6 µM). The Activity (Escherichia coli [16]) was 5%, the Activity (Escherichia coli [17]) was 42% and the inhibition at 4096 µg/mL (Escherichia coli [18]) was 25%. It also gave an Activity (Escherichia coli [19]) of 5%, an MIC (Escherichia coli [8]) of 16400 µg/mL (≈ 46900 µM) and an Activity (Escherichia coli [20]) of 5%. For the same compound, the Activity (Escherichia coli [21]) was 5%.

— ChEMBL document CHEMBL1275444, “Fitness trade-offs in blaTEM evolution” (2008)
